Values quoted from earlier work in patent US8349888B2, “Phytoestrogenic isoflavone compositions, their preparation and use thereof for protection against and treatment of radiation injury” (priority 2000, dated 2013).

Tests used:
[1] = radioprotective doses

Compound	behavioral toxicity [1]	efficacy if given after radiation (mice)
C[C@]12CC[C@@H]3c4ccc(O)cc4CC[C@H]3[C@@H]1CC[C@@H]2O [17-beta-estradiol]	behaviorally toxic	–
O=c1cc(-c2ccc(O)c(O)c2)oc2c([C@@H]3O[C@H](CO)[C@@H](O)[C@H](O)[C@H]3O)c(O)cc(O)c12 [orientin]	–	not effective at all
O=c1cc(-c2ccc(O)cc2)oc2c([C@@H]3O[C@H](CO)[C@@H](O)[C@H](O)[C@H]3O)c(O)c([C@@H]3O[C@H](CO)[C@@H](O)[C@H](O)[C@H]3O)c(O)c12 [vicenin]	–	not effective at all
